{"source": "patent US12264185B2", "about": "“Stabilized BCL9 peptides for treatment of aberrant Wnt signaling” (WntRx Pharmaceuticals Inc., priority 2015, dated 2025)", "key": {"B16F10 cells": {"test_system": "B16F10 cells", "assay": "B16F10 syngeneic model in C57BL/6 mice", "assay_type": "in vivo", "procedure": "C57BL/6 mice were inoculated with B16F10 cells. Female C57BL/6 mice aged 4-5 weeks were inoculated with B16F10 cells (2×10^5 cells in 0.05 ml per mouse) in the right flank. When the average tumor size of the mice reached 100 mm^3, the mice were divided into two groups (N=6). […] The treatment was intraperitoneally administered daily for 14 consecutive days.\nThe treatment was intraperitoneally administered daily for 12 consecutive days. At the end of the treatment, the mice were sacrificed and tumor and blood samples were collected in anticoagulation tubes. Single cell separation was performed for each sample and then stained for FACS analysis. For cell surface staining, CD45-PerCP-Cy5, CD4-FITC, CD8-PE-Cy7, and CD25-PE were used. The tumor samples were then stained with either an anti-CD4 antibody or an anti-CD8 antibody to assess the presence of T cells in the tumor samples. The tumor samples were also stained with an anti-CD194 antibody and anti-CD196 antibody to assess the presence of T helper 17 cells in the tumor samples.\nThe process of constructing WX-039 is described in Example 10. C57BL/6 mice were inoculated with B16F10 cells. […] The treatment was intraperitoneally administered daily for 12 consecutive days. At the end of the treatment, the mice were sacrificed and tumor and blood samples were collected in anticoagulation tubes. Tumor cells collected from the experiment were stained as described above and also with anti-CD205 antibody to assess whether WX compounds are capable of modulating dendritic cells.\nThe ability of WX-039 to suppress tumor growth was assessed in the animal model described in Example 5.4. Briefly, C57BL/6 mice were inoculated with B16 cells. Female C57BL/6 mice aged 5 weeks were inoculated with B16F10 cells (2×10^5 cells in 0.05 ml per mouse) in the right flank. When the average tumor size of the mice reached 100 mm^3, the mice were divided into two groups (N=3). The first group was administered 60 mg/kg WX-039 while the second group was treated with a vehicle. The treatment was intraperitoneally administered daily for 12 consecutive days."}, "[1]": {"test_system": "patient derived colon cancer cells", "assay": "Patient derived xenograft (PDX) colon cancer model in NOD/SCID mice", "assay_type": "in vivo", "details": "15 mg/kg i.v. daily", "source_text": "To assess whether WX-024 is also applicable to tumor derived from human patients, a xenograft animal model inoculated with patient derived colon cancer cells was exposed to WX-024. Samples derived from four different colon cancer patients were screened for biomarkers that indicate an elevated level of canonical Wnt/β-catenin signaling. […] The samples were also stained for nuclear co-localization of BCL9 and β-catenin. […] Male NOD/SCID mice at about 5 weeks of age were […] with colon cancer cells derived from patient #8. Briefly, the selected CRC tumor samples from FIG. 28A were sliced into 3 mm^3 fragments and subcutaneously implanted onto the right flank of NOD/SCID mice. […] Each moue was given a daily intravenous administration for more than 31 days. […] At the end of the study, the mice were sacrificed and tumor samples were collected."}, "[2]": {"assay": "Toxicology study, 14 days i.v., female balb/c mice", "assay_type": "in vivo", "procedure": "At the end of the study, the mice were sacrificed and various major organs were collected. The tissue samples were treated and processed as described in Example 5.5. […] The body weight of each moue was monitored throughout the study and the average body weight of each treatment group is shown in FIG. 30B. […] At the end of the study, blood from each mouse was also collected for serum chemistry and hematological analysis (complete blood cell count analysis)."}, "[3]": {"assay": "Pharmacokinetics in male ICR mice", "details": "mouse, plasma, 5 mg/kg", "experimental": "(§1) The tail vein was used for i.v. injections. […] Following injections, blood samples were obtained via the retro-orbital vein at 5 min, 1, 2, 4, 6, 8, 12, and 24 hours postdose. Plasma was obtained from the blood samples following mixing with sodium heparin and centrifugation.\n(§2) LC analysis was done using an Agilent 100 HPLC. MS analysis was done using an AB Sciex API 4000. Calibration standards were prepared by serial dilution.\n(§3) The maximum observed concentration (Cmax), terminal half-life (T1/2), total body clearance (CL), volume of distribution (Vz), area under the curve from the time of dosing to the last measurable concentration (AUC0-t), area under the curve from the time of dosing extrapolated to infinity (AUC0-inf), and bioavailability were calculated using noncompartmental analysis modules in the FDA-certified pharmacokinetic program WinNonlin Professional v5.2 (Pharsight).\n(§4) Briefly, the mice were administered 1 mg/kg or 5 mg/kg intravenously, or 5 mg/kg intraperitoneally. Blood samples were collected at 15 min, 1, 2, 3, 6, 8, 12, and 24 hours post administration."}, "in vivo [4]": {"assay": "in vivo", "details": "male, ICR, mouse", "experimental": "as §1, §2, §3, §4"}, "[5]": {"assay": "Toxicokinetics, 14 days i.p., female balb/c mice", "details": "for half-life: female, balb/c, mouse, plasma, ip"}, "in vivo [6]": {"assay": "in vivo", "details": "female, balb/c, mouse, ip"}, "[7]": {"details": "20 mg/kg WX-024 or 60 mg/kg WX-039 i.p. daily, 12 days"}, "[8]": {"details": "IP-10 mg/kg, after the first dosing (day 1)"}, "[9]": {"details": "IP-15 mg/kg, after the first dosing (day 1)"}, "[10]": {"details": "IP-20 mg/kg, after the first dosing (day 1)"}}, "note": "Several values for one entry are separate records, joined by “and”; a condition that tells them apart may be missing. Equal entries are not always repeated."}
{"compound": "CC[C@H](C)[C@@H]1NC(=O)[C@@](C)(NC(=O)[C@H](CCCNC(=N)N)NC(=O)[C@H](CC(C)C)NC(=O)[C@@H](NC(=O)[C@H](CCC(N)=O)NC(=O)[C@H](CC(C)C)NC(C)=O)[C@@H](C)O)CCCC=CCCC[C@@](C)(C(=O)N[C@@H](CC(C)C)C(=O)N[C@@H](Cc2ccc3ccccc3c2)C(N)=O)NC(=O)[C@H](CCCNC(=N)N)NC(=O)[C@H](CCC(N)=O)NC1=O", "note": "[WX-024, LQTLRXaa1IQRXaa2L]", "values": [{"measurement": "T helper 17 cells in tumor", "setting": "B16F10 cells; [7]", "value": "more effective than WX-039"}, {"measurement": "dendritic cells (CD205+) in tumor", "setting": "B16F10 cells; [7]", "value": "significantly reduced"}, {"measurement": "CD4+ positive cells in tumor samples", "setting": "B16F10 cells; 25 mg/kg i.p. daily, 12 days", "value": "increased"}, {"measurement": "CD8+ positive cells in tumor samples", "setting": "B16F10 cells; 25 mg/kg i.p. daily, 12 days", "value": "increased"}, {"measurement": "tumor growth compared to vehicle", "setting": "B16F10 cells; 25 mg/kg i.p. daily, 14 days", "value": "effectively reduced tumor growth"}, {"measurement": "CD44 expression in tumor samples", "setting": "[1]", "value": "capable of reducing CD44 expression"}, {"measurement": "average tumor growth inhibition rate", "setting": "[1]; after 31 days of dosing", "value": 75.6, "unit": "%"}, {"measurement": "blood cell count profile vs vehicle", "setting": "[2]; 20 mg/kg i.v. daily", "value": "did not differ significantly"}, {"measurement": "average body weight", "setting": "[2]; 10, 15 or 20 mg/kg i.v. daily", "value": "stabilized and was maintained throughout the study"}, {"measurement": "food consumption", "setting": "[2]; 10, 15 or 20 mg/kg i.v. daily", "value": "recovered to near baseline levels with continued treatment"}, {"measurement": "bioavailability", "setting": "[3]; ip", "value": 73.6, "unit": "%"}, {"measurement": "Cmax", "setting": "[3]; iv", "value": "47400 ng/mL and > 30 µM"}, {"measurement": "half-life", "setting": "in vivo [4]", "value": "2.4 to 2.5", "unit": "h"}, {"measurement": "AUCINF", "setting": "[5]; [8]", "value": 117, "unit": "µg·h/mL"}, {"measurement": "AUClast", "setting": "[5]; [8]", "value": 114333, "unit": "ng·h/mL"}, {"measurement": "Cmax", "setting": "[5]; [8]", "value": 11390, "unit": "ng/mL"}, {"measurement": "Terminal t1/2", "setting": "[5]; [8]", "value": 4.52, "unit": "h"}, {"measurement": "Tmax", "setting": "[5]; [8]", "value": 1.50, "unit": "h"}, {"measurement": "Cmax", "setting": "[5]; IP-10 mg/kg, after the last dosing (day 14)", "value": 11360, "unit": "ng/mL"}, {"measurement": "AUCINF", "setting": "[5]; [9]", "value": 129.1, "unit": "µg·h/mL"}, {"measurement": "AUClast", "setting": "[5]; [9]", "value": "118,033 hr*ng/mL"}, {"measurement": "Cmax", "setting": "[5]; [9]", "value": 9767, "unit": "ng/mL"}, {"measurement": "Terminal t1/2", "setting": "[5]; [9]", "value": 7.59, "unit": "h"}, {"measurement": "AUCINF", "setting": "[5]; [10]", "value": 175.333, "unit": "µg·h/mL"}, {"measurement": "AUClast", "setting": "[5]; [10]", "value": "162,333 hr*ng/mL"}, {"measurement": "Cmax", "setting": "[5]; [10]", "value": 12733, "unit": "ng/mL"}, {"measurement": "Terminal t1/2", "setting": "[5]; [10]", "value": 6.47, "unit": "h"}, {"measurement": "Tmax", "setting": "[5]; [10]", "value": 2.67, "unit": "h"}, {"measurement": "half-life", "setting": "[5]; 10 mg/kg", "value": 6.97, "unit": "h"}, {"measurement": "half-life", "setting": "[5]; 15 mg/kg", "value": 4.25, "unit": "h"}, {"measurement": "half-life", "setting": "[5]; 20 mg/kg", "value": 4.55, "unit": "h"}, {"measurement": "AUC(0-inf)", "setting": "in vivo [6]; 10 mg/kg", "value": 41.1, "unit": "µg·h/mL"}, {"measurement": "AUC(0-t)", "setting": "in vivo [6]; 10 mg/kg", "value": 37.8, "unit": "µg·h/mL"}, {"measurement": "Tmax", "setting": "in vivo [6]; 10 mg/kg", "value": 2, "unit": "h"}, {"measurement": "AUC(0-inf)", "setting": "in vivo [6]; 15 mg/kg", "value": 109, "unit": "µg·h/mL"}, {"measurement": "AUC(0-t)", "setting": "in vivo [6]; 15 mg/kg", "value": 107, "unit": "µg·h/mL"}, {"measurement": "Cmax", "setting": "in vivo [6]; 15 mg/kg", "value": 8750, "unit": "ng/mL"}, {"measurement": "Tmax", "setting": "in vivo [6]; 15 mg/kg", "value": 3.33, "unit": "h"}, {"measurement": "AUC(0-inf)", "setting": "in vivo [6]; 20 mg/kg", "value": 161, "unit": "µg·h/mL"}, {"measurement": "AUC(0-t)", "setting": "in vivo [6]; 20 mg/kg", "value": 160, "unit": "µg·h/mL"}, {"measurement": "Cmax", "setting": "in vivo [6]; 20 mg/kg", "value": 13700, "unit": "ng/mL"}, {"measurement": "Tmax", "setting": "in vivo [6]; 20 mg/kg", "value": 4, "unit": "h"}]}
